# Assay results taken from US20260262643A1, “HERBICIDAL BENZOXAZINES” (FMC CORPORATION, priority 2022, published 2026).
# Tests used:
# wheat [1] = assay: Test C preemergence; type: in vivo, Triticum aestivum
# Outline: (§1)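 Visual injury ratings on a 0–100 scale (100 = complete control) were made against untreated controls 10 days after treatment in the greenhouse. Compounds, formulated with surfactant in non-phytotoxic solvent, were sprayed on soil preemergence or onto one- to two-leaf plants 2–10 cm tall postemergence.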
# pigweed, palmer [2] = assay: Test C preemergence; type: in vivo, Amaranthus palmeri
# Outline: as §1
# wheat [3] = assay: Test C postemergence; type: in vivo, Triticum aestivum; details: 10 days, 0 to 100 scale (0 no effect, 100 complete control)
# Outline: as §1
# green foxtail [4] = assay: Test C preemergence; type: in vivo, Setaria viridis
# Outline: as §1
# kochia [5] = assay: Test C postemergence; type: in vivo, Bassia scoparia; details: 10 days, 0 to 100 scale (0 no effect, 100 complete control)
# Outline: as §1
# green foxtail [6] = assay: Test C postemergence; type: in vivo, Setaria viridis; details: 10 days, 0 to 100 scale (0 no effect, 100 complete control)
# Outline: as §1
# corn [7] = assay: Test C postemergence; type: in vivo, Zea mays; details: 10 days, 0 to 100 scale (0 no effect, 100 complete control)
# Outline: as §1
# ragweed [8] = assay: Test C postemergence; type: in vivo, Ambrosia artemisiifolia; details: 10 days, 0 to 100 scale (0 no effect, 100 complete control)
# Outline: as §1
# blackgrass [9] = assay: Test C preemergence; type: in vivo, Alopecurus myosuroides
# Outline: as §1
# barnyardgrass [10] = assay: Test C preemergence; type: in vivo, Echinochloa crusgalli
# Outline: as §1
# soybean [11] = assay: Test C preemergence; type: in vivo, Glycine max
# Outline: as §1
# corn [12] = assay: Test C preemergence; type: in vivo, Zea mays
# Outline: as §1
# pigweed, palmer [13] = assay: Test C postemergence; type: in vivo, Amaranthus palmeri; details: 10 days, 0 to 100 scale (0 no effect, 100 complete control)
# Outline: as §1
# barnyardgrass [14] = assay: Test D flooded paddy test; type: in vivo, Echinochloa crus-galli; details: 250 g ai/ha, applied to paddy water, visual rating after 13 to 14 days, scale 0 to 100 (0 no effect, 100 complete control)
# Outline: (§2)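 Compounds go straight into paddy water over 2-leaf plants in pots flooded to 3 cm. Greenhouse holding lasts 13 to 14 days. Injury is scored by eye against controls from 0 (none) to 100 (complete control).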
# ryegrass, Italian [15] = assay: Test C preemergence; type: in vivo, Lolium multiflorum
# Outline: as §1
# ryegrass, Italian [16] = assay: Test C postemergence; type: in vivo, Lolium multiflorum; details: 10 days, 0 to 100 scale (0 no effect, 100 complete control)
# Outline: as §1
# blackgrass [17] = assay: Test C postemergence; type: in vivo, Alopecurus myosuroides; details: 10 days, 0 to 100 scale (0 no effect, 100 complete control)
# Outline: as §1
# oat, wild [18] = assay: Test C preemergence; type: in vivo, Avena fatua
# Outline: as §1
# sedge, umbrella = assay: Test D flooded paddy test; type: in vivo, Cyperus difformis; details: 250 g ai/ha, applied to paddy water, visual rating after 13 to 14 days, scale 0 to 100 (0 no effect, 100 complete control)
# Outline: as §2
# kochia [19] = assay: Test C preemergence; type: in vivo, Bassia scoparia
# Outline: as §1
# soybean [20] = assay: Test C postemergence; type: in vivo, Glycine max; details: 10 days, 0 to 100 scale (0 no effect, 100 complete control)
# Outline: as §1
# ragweed [21] = assay: Test C preemergence; type: in vivo, Ambrosia artemisiifolia
# Outline: as §1
# horseweed = assay: Test C postemergence; type: in vivo, Erigeron canadensis; details: 10 days, 0 to 100 scale (0 no effect, 100 complete control)
# Outline: as §1
# galium = assay: Test C postemergence; type: in vivo, Galium aparine; details: 10 days, 0 to 100 scale (0 no effect, 100 complete control)
# Outline: as §1
# barnyardgrass [22] = assay: Test C postemergence; type: in vivo, Echinochloa crusgalli; details: 10 days, 0 to 100 scale (0 no effect, 100 complete control)
# Outline: as §1
# ducksalad = assay: Test D flooded paddy test; type: in vivo, Heteranthera limosa; details: 250 g ai/ha, applied to paddy water, visual rating after 13 to 14 days, scale 0 to 100 (0 no effect, 100 complete control)
# Outline: as §2
# rice = assay: Test D flooded paddy test; type: in vivo, Oryza sativa; details: 250 g ai/ha, applied to paddy water, visual rating after 13 to 14 days, scale 0 to 100 (0 no effect, 100 complete control)
# Outline: as §2
# oat, wild [23] = assay: Test C postemergence; type: in vivo, Avena fatua; details: 10 days, 0 to 100 scale (0 no effect, 100 complete control)
# Outline: as §1
# [24] = 500 g ai/ha, preemergence, 0 to 100 scale (0 no effect, 100 complete control)
# [25] = Preemergence, 125 g ai/ha, 0 to 100 scale, 0 no effect, 100 complete control
smiles,measurement,setting,value
COC[C@H]1CN(C(=O)c2cc(-n3cnc(C(C)(C)C)n3)cc3c2OCCO3)c2cccc(Cl)c2O1 [Compound 382],Wheat plant response rating,wheat [1]; [24],40
same,"Plant response rating, Wheat",wheat [1]; [25],0
same,"Pigweed, Palmer plant response rating","pigweed, palmer [2]; [24]",100
same,"Plant response rating, Pigweed, Palmer","pigweed, palmer [2]; [25]",100
same,"Plant response rating, Wheat","wheat [3]; 500 g ai/ha, postemergence",40
same,"Plant response rating, Wheat","wheat [3]; Postemergence, 125 g ai/ha",20
same,"Foxtail, Green plant response rating",green foxtail [4]; [24],100
same,"Plant response rating, Foxtail, Green",green foxtail [4]; [25],90
same,"Plant response rating, Kochia","kochia [5]; 500 g ai/ha, postemergence",100
same,"Plant response rating, Kochia","kochia [5]; Postemergence, 125 g ai/ha",90
same,"Plant response rating, Foxtail, Green","green foxtail [6]; 500 g ai/ha, postemergence",60
same,"Plant response rating, Foxtail, Green","green foxtail [6]; Postemergence, 125 g ai/ha",20
same,"Plant response rating, Corn","corn [7]; 500 g ai/ha, postemergence",50
same,"Plant response rating, Corn","corn [7]; Postemergence, 125 g ai/ha",20
same,"Plant response rating, Ragweed","ragweed [8]; 500 g ai/ha, postemergence",90
same,"Plant response rating, Ragweed","ragweed [8]; Postemergence, 125 g ai/ha",90
same,Blackgrass plant response rating,blackgrass [9]; [24],50
same,"Plant response rating, Blackgrass",blackgrass [9]; [25],10
same,Barnyardgrass plant response rating,barnyardgrass [10]; [24],100
same,"Plant response rating, Barnyardgrass",barnyardgrass [10]; [25],50
same,Soybean plant response rating,soybean [11]; [24],80
same,"Plant response rating, Soybean",soybean [11]; [25],60
same,Corn plant response rating,corn [12]; [24],70
same,"Plant response rating, Corn",corn [12]; [25],10
same,"Plant response rating, Pigweed, Palmer","pigweed, palmer [13]; 500 g ai/ha, postemergence",100
same,"Plant response rating, Pigweed, Palmer","pigweed, palmer [13]; Postemergence, 125 g ai/ha",100
same,"Plant response rating, Barnyardgrass (Flood)",barnyardgrass [14],50
same,"Ryegrass, Italian plant response rating","ryegrass, Italian [15]; [24]",100
same,"Plant response rating, Ryegrass, Italian","ryegrass, Italian [15]; [25]",80
same,"Plant response rating, Ryegrass, Italian","ryegrass, Italian [16]; 500 g ai/ha, postemergence",60
same,"Plant response rating, Ryegrass, Italian","ryegrass, Italian [16]; Postemergence, 125 g ai/ha",40
same,"Plant response rating, Blackgrass","blackgrass [17]; 500 g ai/ha, postemergence",40
same,"Plant response rating, Blackgrass","blackgrass [17]; Postemergence, 125 g ai/ha",10
same,"Oat, Wild plant response rating","oat, wild [18]; [24]",80
same,"Plant response rating, Oat, Wild","oat, wild [18]; [25]",20
same,"Plant response rating, Sedge, Umbrella (Flood)","sedge, umbrella",25
same,Kochia plant response rating,kochia [19]; [24],100
same,"Plant response rating, Kochia",kochia [19]; [25],80
same,"Plant response rating, Soybean","soybean [20]; 500 g ai/ha, postemergence",100
same,"Plant response rating, Soybean","soybean [20]; Postemergence, 125 g ai/ha",100
same,Ragweed plant response rating,ragweed [21]; [24],100
same,"Plant response rating, Ragweed",ragweed [21]; [25],60
same,"Plant response rating, Horseweed","horseweed; 500 g ai/ha, postemergence",50
same,"Plant response rating, Horseweed","horseweed; Postemergence, 125 g ai/ha",50
same,"Plant response rating, Galium","galium; 500 g ai/ha, postemergence",100
same,"Plant response rating, Galium","galium; Postemergence, 125 g ai/ha",100
same,"Plant response rating, Barnyardgrass","barnyardgrass [22]; 500 g ai/ha, postemergence",50
same,"Plant response rating, Barnyardgrass","barnyardgrass [22]; Postemergence, 125 g ai/ha",30
same,"Plant response rating, Ducksalad (Flood)",ducksalad,15
same,"Plant response rating, Rice (Flood)",rice,15
same,"Plant response rating, Oat, Wild","oat, wild [23]; 500 g ai/ha, postemergence",0
same,"Plant response rating, Oat, Wild","oat, wild [23]; Postemergence, 125 g ai/ha",0
